Laboratory results reported in PubChem BioAssay AID686975 (The Scripps Research Institute Molecular Screening Center, 2013).
Blank lines part the entries; values can stand above or below the compound they belong to. Activity calls are given as the source filed them. The rule behind the calls is not given here.

Columns and labels:
[1] = test system: HSP70; assay: Hsp70 and Hsp90 expression induction, late-stage follow-up, cell-based, Western blot, chemiluminescence (AID 686975); conditions: cells, hits give high values
[2] = molecular target: Heat shock protein HSP 90-alpha (Homo sapiens) (UniProt P07900); assay: as above; conditions: cells, hits give high values

up-regulation ([2]; HSP90, high dose (five times the IC50) 44.5 µM, low dose (half the IC50) 4.5 µM): < 10%
Structure (SMILES): Cc1cc(NC(=O)c2coc(=O)c(Br)c2)ccc1C(C)C
up-regulation ([1]; high dose (five times the IC50) 44.5 µM, low dose (half the IC50) 4.5 µM): < 10%

up-regulation ([2]; HSP90, high dose (five times the IC50) 114 µM, low dose (half the IC50) 11.4 µM): < 50% (inactive)
Structure (SMILES): CCCCOc1cccc(NC(=O)c2coc(=O)c(Br)c2)c1
up-regulation ([1]; high dose (five times the IC50) 114 µM, low dose (half the IC50) 11.4 µM): < 10%

up-regulation ([2]; HSP90, high dose (five times the IC50) 37.5 µM, low dose (half the IC50) 3.8 µM): < 10%
Structure (SMILES): CC(C)CNC(=O)c1coc(=O)c(Br)c1
up-regulation ([1]; high dose (five times the IC50) 37.5 µM, low dose (half the IC50) 3.8 µM): < 10%

up-regulation ([2]; HSP90, high dose (five times the IC50) 64.5 µM, low dose (half the IC50) 6.5 µM): < 50% (inactive)
Structure (SMILES): CCCCCCCCOc1ccc(NC(=O)c2coc(=O)c(Br)c2)cc1
up-regulation ([1]; high dose (five times the IC50) 64.5 µM, low dose (half the IC50) 6.5 µM): < 10%

up-regulation ([2]; HSP90, high dose (five times the IC50) 136.5 µM, low dose (half the IC50) 13.7 µM): < 50% (inactive)
Structure (SMILES): Cc1cccc(NC(=O)c2coc(=O)c(Br)c2)n1
up-regulation ([1]; high dose (five times the IC50) 136.5 µM, low dose (half the IC50) 13.7 µM): < 10%

up-regulation ([2]; HSP90, high dose (five times the IC50) 60.5 µM, low dose (half the IC50) 6.1 µM): < 10%
Structure (SMILES): COc1ccc(NC(=O)c2ccc(NC(=O)c3coc(=O)c(Br)c3)cc2)cc1
up-regulation ([1]; high dose (five times the IC50) 60.5 µM, low dose (half the IC50) 6.1 µM): < 10%

up-regulation ([2]; HSP90, high dose (five times the IC50) 147 µM, low dose (half the IC50) 14.7 µM): < 10%
Structure (SMILES): O=C(Nc1ccccc1I)c1coc(=O)c(Br)c1
up-regulation ([1]; high dose (five times the IC50) 147 µM, low dose (half the IC50) 14.7 µM): < 10%

up-regulation ([2]; HSP90, high dose (five times the IC50) 10.5 µM, low dose (half the IC50) 1.1 µM): < 10%
Structure (SMILES): O=C(NCCc1ccc(F)cc1)c1coc(=O)c(Br)c1
up-regulation ([1]; high dose (five times the IC50) 10.5 µM, low dose (half the IC50) 1.1 µM): < 10%

up-regulation ([2]; HSP90, high dose (five times the IC50) 17 µM, low dose (half the IC50) 1.7 µM): < 10%
Structure (SMILES): O=C(Nc1ccc(F)cc1)c1coc(=O)c(Br)c1
up-regulation ([1]; high dose (five times the IC50) 17 µM, low dose (half the IC50) 1.7 µM): < 10%

up-regulation ([2]; HSP90, high dose (five times the IC50) 53.5 µM, low dose (half the IC50) 5.4 µM): < 10%
Structure (SMILES): CC(=O)c1ccc(NC(=O)c2coc(=O)c(Br)c2)cc1
up-regulation ([1]; high dose (five times the IC50) 53.5 µM, low dose (half the IC50) 5.4 µM): < 10%

up-regulation ([2]; HSP90, high dose (five times the IC50) 246 µM, low dose (half the IC50) 24.6 µM): < 10%
Structure (SMILES): COC(=O)c1ccc2nc(NC(=O)C3CC3)sc2c1
up-regulation ([1]; high dose (five times the IC50) 246 µM, low dose (half the IC50) 24.6 µM): < 10%

up-regulation ([2]; HSP90, high dose (five times the IC50) 9 µM, low dose (half the IC50) 0.9 µM): < 10%
Structure (SMILES): CC(NC(=O)c1coc(=O)c(Br)c1)C1C2CCC3CC(C2)CC31 (configuration not stated)
up-regulation ([1]; high dose (five times the IC50) 9 µM, low dose (half the IC50) 0.9 µM): < 10%

up-regulation ([2]; HSP90, high dose (five times the IC50) 24 µM, low dose (half the IC50) 2.4 µM): < 10%
Structure (SMILES): O=C(NCc1ccco1)c1coc(=O)c(Br)c1
up-regulation ([1]; high dose (five times the IC50) 24 µM, low dose (half the IC50) 2.4 µM): < 10%

up-regulation ([2]; HSP90, high dose (five times the IC50) 17.5 µM, low dose (half the IC50) 1.8 µM): < 10%
Structure (SMILES): O=C(NCc1cccnc1)c1coc(=O)c(Br)c1
up-regulation ([1]; high dose (five times the IC50) 17.5 µM, low dose (half the IC50) 1.8 µM): < 10%

up-regulation ([2]; HSP90, high dose (five times the IC50) 12 µM, low dose (half the IC50) 1.2 µM): < 10%
Structure (SMILES): COc1ccc(NC(=O)c2coc(=O)c(Br)c2)cc1
up-regulation ([1]; high dose (five times the IC50) 12 µM, low dose (half the IC50) 1.2 µM): < 10%

up-regulation ([2]; HSP90, high dose (five times the IC50) 111 µM, low dose (half the IC50) 11.1 µM): < 10%
Structure (SMILES): CCOc1ccc(-c2nc(CN3CCCCC3CCn3cccn3)c(C)o2)cc1 (configuration not stated)
up-regulation ([1]; high dose (five times the IC50) 111 µM, low dose (half the IC50) 11.1 µM): < 10%
